Measurements reported in patent publication US9469647B2, “Salt crystals” (INTRA-CELLULAR THERAPIES, INC., priority 2012, dated 2016).
Counter-ions that a name gives are not always drawn. Like-named read-outs stand apart in the source and are kept apart here. Values belong to the compound of their own block, whether it stands above or below them.

Tests used:
[1] = USP2 dissolution study at pH 1 and 4.5; type: physicochemical; details: for solubility at low pH in dissolution study: pH 1 (0.1 M HCl), 37 C; for time to full dissolution: pH 1, about 0.1 mg/mL (API equivalent), capsule in 1000 mL, 50 rpm
Text: The rate of dissolution is an important factor in the bioavailability of an active pharmaceutical ingredient (API). This is commonly tested using standard conditions e.g. USP 2 dissolution testing. The pH of the aqueous media used can be correlated with the pH of the stomach (low pH −1-2) and the intestines (intermediate acidic pH −4-6). Therefore pH 1 (0.1 M HCl) and a citrate buffer at pH 4.5 (0.2M) are used for the dissolution testing.
The (6aR,9aS)-5,6a,7,8,9,9a-hexahydro-5-methyl-3-(phenylamino)-2-((4-(6-fluoropyridin-2-yl)phenyl)methyl)-cyclopent[4,5]imidazo[1,2-a]pyrazolo[4,3-e]pyrimidin-4(2H)-one mono-phosphate salt crystals are weighed (×4) into size 0 white gelatine capsules at 119 mg per capsule (equivalent to 100 mg API). The (6aR,9aS)-5,6a,7,8,9,9a-hexahydro-5-methyl-3-(phenylamino)-2-((4-(6-fluoropyridin-2-yl)phenyl)methyl)-cyclopent[4,5]imidazo-[1,2-a]pyrazolo[4,3-e]pyrimidin-4(2H)-one is also weighed (×2) into white gelatine capsules at 100 mg per capsule. These capsules are then dissolved using the standard set up of the USP 2 dissolution equipment i.e., in 1000 mL of the relevant aqueous media, stirrers set at 50 rpm, capsules placed in metal coils to weigh them down, media equilibrated with the water bath set at 37″C. Analytical samples are removed via canula, with an initial filter on the canula and secondary filtering through 0.2 micron syringe filters. The samples are then analysed without dilution by HPLC for API content. Calibration for HPLC is run using both the free base API and the phosphate salt.

[2] = system: phosphodiesterase 1 (PDE 1); details: statement referring to WO 2009/075784; cited from earlier work
[3] = Solubility study of phosphate salt crystals in aqueous media at pH 1.2-6.8; type: physicochemical; details: for solubility at 1 hr: read-out: Solubility after 1 hr; for solubility at 16 hr: read-out: Solubility after 16 hrs
Protocol: The (6aR,9aS)-5,6a,7,8,9,9a-hexahydro-5-methyl-3-(phenylamino)-2-((4-(6-fluoropyridin-2-yl)phenyl)methyl)-cyclopent[4,5]imidazo[1,2-a]pyrazolo[4,3-e]pyrimidin-4(2H)-one mono-phosphate salt crystals are assessed for its aqueous solubility at lower pH. The (amorphous) free base is also tested for reference at a limited range of pH.
Phosphate (buffer) solutions are made at 50 mM concentration and the pH is adjusted to pH 2, 3, 4, 5 or 6.8 using either 3M phosphoric acid (lower pH) or 3M NaOH (higher pH). 0.1N HCl is also used, pH is measured as 1.2.
20 mg of the (6aR,9aS)-5,6a,7,8,9,9a-hexahydro-5-methyl-3-(phenylamino)-2-((4-(6-fluoropyridin-2-yl)phenyl)methyl)-cyclopent[4,5]imidazo[1,2-a]pyrazolo[4,3-e]pyrimidin-4(2H)-one mono-phosphate salt crystals or free base is weighed into a glass vial, and 2 ml of the relevant aqueous media is added. The vials are shaken. After 1 hr, a sample (˜1 ml) is removed via syringe, and filtered through a syringe filter (0.2 micron) into an HPLC vial. After shaking the suspensions for 16 hours, a second sample is taken. All samples are then diluted with the HPLC diluent by a factor of 1000 (except the pH 6.8 samples which are diluted ×10), and re-analysed by HPLC. In cases where the entire solid dissolved, the 2 ml solution is added to another 20 mg salt or free base.

[4] = Bridging study of monophosphate salt and free base in dog (plasma pharmacokinetics); type: in vivo; details: po, 40 mg/kg; for half-life: read-out: E Half-life (converted)
Protocol: The mono-phosphate salt of (6aR,9aS)-5,6a,7,8,9,9a-hexahydro-5-methyl-3-(phenylamino)-2-((4-(6-fluoropyridin-2-yl)phenyl)methyl)-cyclopent[4,5]imidazo[1,2-a]pyrazolo[4,3-e]pyrimidin-4(2H)-one is administered to dogs at a dose of 40 mg/kg in gelatin capsules or via oral gavage in a vehicle formulation of HCl-Citrate, pH 3.5, 0.5% methylcellulose in water. […] The analysis of drug concentration in plasma samples collected is analyzed.
The pharmacokinetic (PK) parameters are determined from the plasma concentration versus time data by non-compartmental methods with uniform weighting (PK solutions 2.0™, Summit Research Services, Montrose, Colo.). The maximum observed concentration (Cmax) and the time of the maximum observed concentration (tmax) are obtained from the bioanalytical raw data. The area-under-the-plasma concentration-time curve from time zero to the time of the last measurable sample (AUC_) is calculated by the trapezoidal rule.

[5] = Solid-state properties of the mono-phosphate salt crystals for galenic formulation; type: physicochemical
[6] = Single rising dose clinical study (pharmacokinetic profile); type: in vivo; details: plasma, human, aqueous solution, Mean (SD)
Protocol: In a single rising dose clinical study involving 55 active subjects (15 placebo) with 11 active:3 placebo for each dose level of 10, 25, 75, 150, 300 mg, the mono-phosphate salt crystals of (6aR,9aS)-5,6a,7,8,9,9a-hexahydro-5-methyl-3-(phenylamino)-2-((4-(6-fluoropyridin-2-yl)phenyl)methyl)-cyclopent[4,5]imidazo[1,2-a]pyrazolo[4,3-e]pyrimidin-4(2H)-one is dissolved in water, and this aqueous solution is orally administered. The pharmacokinetic profile is setforth below in Table 7.

[7] = 50 mM phosphate buffer, pH 2, aqueous buffer, thermodynamic from solid, pH 2, 50 mM phosphate buffer
[8] = 0.1N HCl, pH 1.2, simulated gastric fluid, thermodynamic from solid, pH 1.2 (0.1N HCl)
[9] = both sexes, Mean (M-5001 to F-5102), oral gavage
[10] = female, dog F-5101, oral gavage
[11] = female, dog F-5102, oral gavage
[12] = 50 mM phosphate buffer, pH 4, aqueous buffer, thermodynamic from solid, pH 4, 50 mM phosphate buffer
[13] = pH 5, 50 mM phosphate buffer, diluted 1000 times before HPLC
[14] = pH 6.8, 50 mM phosphate buffer, diluted 10 times before HPLC
[15] = female, dog F-1101, oral gavage
[16] = female, dog F-1102, oral gavage
[17] = female, dog F-2102, oral capsule

solubility at low pH in dissolution study [1]: good solubility
time to full dissolution [1]: approximately 15 minutes
solubility at 1 hr [3, 7]: > 20000 µg/mL
solubility at 16 hr [3, 7]: > 20000 µg/mL
solubility at 1 hr [3, 8]: > 20000 µg/mL
solubility at 16 hr [3, 8]: > 20000 µg/mL
Solubility after 1 hr ([3]; pH 3, 50 mM phosphate buffer): 2500 µg/mL
Solubility after 16 hrs ([3]; pH 3, 50 mM phosphate buffer): 2200 µg/mL
AUC [4, 9]: 19200 ng·h/mL
Cmax [4, 9]: 1020 ng/mL
Tmax [4, 9]: 4 h
half-life [4, 9]: 10.8 h
AUC [4, 10]: 11500 ng·h/mL
Cmax [4, 10]: 674 ng/mL
Tmax [4, 10]: 8 h
half-life [4, 10]: 6.7 h
AUC [4, 11]: 14300 ng·h/mL
Cmax [4, 11]: 2000 ng/mL
Tmax [4, 11]: 2 h
half-life [4, 11]: 5.5 h
AUC ([4]; male, dog M-5001, oral gavage): 20100 ng·h/mL
Cmax ([4]; male, dog M-5001, oral gavage): 902 ng/mL
Tmax ([4]; male, dog M-5001, oral gavage): 4 h
half-life ([4]; male, dog M-5001, oral gavage): 14.8 h
AUC ([4]; male, dog M-5002, oral gavage): 36500 ng·h/mL
Cmax ([4]; male, dog M-5002, oral gavage): 1320 ng/mL
Tmax ([4]; male, dog M-5002, oral gavage): 4 h
half-life ([4]; male, dog M-5002, oral gavage): 16.7 h
SMILES: CN1C(=O)c2c(nn(Cc3ccc(-c4cccc(F)n4)cc3)c2Nc2ccccc2)N2C1=N[C@@H]1CCC[C@@H]12 [Free base API (amorphous), (6aR,9aS)-5,6a,7,8,9,9a-hexahydro-5-methyl-3-(phenylamino)-2-((4-(6-fluoropyridin-2-yl)phenyl)methyl)-cyclopent[4,5]imidazo[1,2-a]pyrazolo[4,3-e]pyrimidin-4(2H)-one]
PDE1 inhibition (potency and selectivity in words) [2]: potent and selective phosphodiesterase 1 (PDE 1) inhibitor

solubility ([5]; general statement): good solubility
hygroscopicity ([5]; solid salt crystals): low hygroscopicity
stability ([5]; solid salt crystals): particularly stable
solubility at low pH in dissolution study [1]: good solubility
time to full dissolution [1]: approximately 15 minutes
solubility ([3]; 50 mM phosphate buffer, pH 4, aqueous buffer, thermodynamic from solid, pH 4): ≤ 7700 µg/mL
solubility at 1 hr [3, 12]: 2500 µg/mL
solubility at 16 hr [3, 12]: 7700 µg/mL
Solubility after 1 hr ([3]; pH 1.2 (0.1N HCl)): >20000 µg/mL
Solubility after 16 hrs ([3]; pH 1.2 (0.1N HCl)): >20000 µg/mL
Solubility after 1 hr ([3]; pH 2, 50 mM phosphate buffer): 13600 µg/mL
Solubility after 16 hrs ([3]; pH 2, 50 mM phosphate buffer): 17000 µg/mL
Solubility after 1 hr ([3]; pH 3, 50 mM phosphate buffer): 8400 µg/mL
Solubility after 16 hrs ([3]; pH 3, 50 mM phosphate buffer): 9400 µg/mL
Solubility after 1 hr [3, 13]: Below detection limit*
Solubility after 16 hrs [3, 13]: Below detection limit*
Solubility after 1 hr [3, 14]: Below detection limit*
Solubility after 16 hrs [3, 14]: Below detection limit*
AUC ([4]; both sexes, Mean, oral capsule): 18700 ng·h/mL
Tmax ([4]; both sexes, Mean, oral capsule): 2 h
half-life ([4]; both sexes, Mean, oral capsule): 7.3 h
AUC ([4]; both sexes, Mean, oral gavage): 21300 ng·h/mL
Tmax ([4]; both sexes, Mean, oral gavage): 4 h
half-life ([4]; both sexes, Mean, oral gavage): 8.7 h
AUC [4, 15]: 16200 ng·h/mL
Cmax [4, 15]: 1080 ng/mL
Tmax [4, 15]: 4 h
half-life [4, 15]: 6.6 h
AUC [4, 16]: 21300 ng·h/mL
Cmax [4, 16]: 1360 ng/mL
Tmax [4, 16]: 8 h
half-life [4, 16]: 5.5 h
AUC [4, 17]: 20500 ng·h/mL
Cmax [4, 17]: 1470 ng/mL
Tmax [4, 17]: 8 h
half-life [4, 17]: 6.2 h
AUC ([4]; male, dog M-1001, oral gavage): 16900 ng·h/mL
Cmax ([4]; male, dog M-1001, oral gavage): 918 ng/mL
Tmax ([4]; male, dog M-1001, oral gavage): 8 h
half-life ([4]; male, dog M-1001, oral gavage): 7.8 h
AUC ([4]; male, dog M-1002, oral gavage): 31600 ng·h/mL
Cmax ([4]; male, dog M-1002, oral gavage): 1520 ng/mL
Tmax ([4]; male, dog M-1002, oral gavage): 4 h
half-life ([4]; male, dog M-1002, oral gavage): 12 h
AUC ([4]; male, dog M-2001, oral capsule): 13200 ng·h/mL
Cmax ([4]; male, dog M-2001, oral capsule): 2430 ng/mL
Tmax ([4]; male, dog M-2001, oral capsule): 2 h
half-life ([4]; male, dog M-2001, oral capsule): 4.6 h
AUC ([4]; male, dog M-2002, oral capsule): 21900 ng·h/mL
Cmax ([4]; male, dog M-2002, oral capsule): 1530 ng/mL
Tmax ([4]; male, dog M-2002, oral capsule): 2 h
half-life ([4]; male, dog M-2002, oral capsule): 7.8 h
Cmax ([4]; Mean, oral capsule): 1330 ng/mL
Cmax ([4]; Mean, oral gavage): 1160 ng/mL
AUC(0-inf) ([6]; single oral dose 10 mg): 772 ng·h/mL
AUC(0-t) ([6]; single oral dose 10 mg): 768 ng·h/mL
Cmax ([6]; single oral dose 10 mg): 89.7 ng/mL
Tmax ([6]; single oral dose 10 mg): 1 h
AUC(0-inf) ([6]; single oral dose 25 mg): 1340 ng·h/mL
AUC(0-t) ([6]; single oral dose 25 mg): 1340 ng·h/mL
Cmax ([6]; single oral dose 25 mg): 155 ng/mL
Tmax ([6]; single oral dose 25 mg): 0.5 h
AUC(0-inf) ([6]; single oral dose 75 mg): 3050 ng·h/mL
AUC(0-t) ([6]; single oral dose 75 mg): 3040 ng·h/mL
Cmax ([6]; single oral dose 75 mg): 334 ng/mL
Tmax ([6]; single oral dose 75 mg): 1 h
AUC(0-inf) ([6]; single oral dose 150 mg): 5050 ng·h/mL
AUC(0-t) ([6]; single oral dose 150 mg): 5040 ng·h/mL
Cmax ([6]; single oral dose 150 mg): 585 ng/mL
Tmax ([6]; single oral dose 150 mg): 1 h
AUC(0-inf) ([6]; single oral dose 300 mg): 8190 ng·h/mL
AUC(0-t) ([6]; single oral dose 300 mg): 8180 ng·h/mL
Cmax ([6]; single oral dose 300 mg): 828 ng/mL
Tmax ([6]; single oral dose 300 mg): 1 h
SMILES: CN1C(=O)c2c(nn(Cc3ccc(-c4cccc(F)n4)cc3)c2Nc2ccccc2)N2C1=N[C@@H]1CCC[C@@H]12 [Phosphate salt, (6aR,9aS)-5,6a,7,8,9,9a-hexahydro-5-methyl-3-(phenylamino)-2-((4-(6-fluoropyridin-2-yl)phenyl)methyl)-cyclopent[4,5]imidazo[1,2-a]pyrazolo[4,3-e]pyrimidin-4(2H)-one]
dissolution rate compared with the free base ([1]; USP 2, pH 1 and pH 4.5): better dissolution rates than the free base
solubility compared with the amorphous free base ([3]; pH 3): better solubility than the amorphous free base
